This passage reports inhibition and IC50 results from patent US20240391948A1, “NOVEL COMPOUND THAT INHIBITS TNF-ALPHA GENERATION AND INFLAMMASOME ACTIVITY AND PREPARATION METHOD THEREFOR” (SHAPERON INC., priority 2021, published 2024).

Structures are written as SMILES.

Common to all, as to type: cell-based
The test system of experiment [1] is J774A.1 (Mouse BALB/c monocyte macrophage cell line) cells. Description: LPS-induced TNF-α secretion inhibition in J774A.1 cells. The following applies: J774.A1, 1 μM compound, graded compared to taurodeoxycholic acid (positive control), read-out: TNF-α production inhibition grade. An outline of the steps: (§1)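 Grades (A >100%, B 50–100%, C 20–50%, D <20%) express cytokine suppression by 1 μM compound relative to taurodeoxycholic acid. LPS-induced TNF-α and LPS+ATP-induced IL-1β secretion were measured in murine J774A.1 macrophage cells.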

Experiment [2] shares this test system. Description: LPS+ATP-induced IL-1β secretion inhibition in J774A.1 cells. Conditions: J774.A1, 1 μM compound, graded compared to taurodeoxycholic acid (positive control), read-out: IL-1β production inhibition grade. An outline of the steps: as §1
For experiment [3], the system named is U937 cells (human monocytic cell line). Description: Pam2CSK4-induced TNF-α secretion inhibition in PMA-differentiated U937 cells. The following applies: U-937, U937 cells differentiated with PMA, read-out: TNF-α production inhibition grade (IC50). Summed up:
(§2)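 Inhibition is given as IC50 (μM) in A-D bands, using distinct thresholds for TNF-α and for IL-1β. Secretion followed Pam2CSK4 stimulation (TNF-α) or BzATP stimulation (IL-1β) of compound-pretreated, PMA-differentiated U937 macrophages.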

Experiment [4] has the same test system. Put plainly: BzATP-induced IL-1β secretion inhibition in PMA-differentiated U937 cells. Conditions: U-937, U937 cells differentiated with PMA, read-out: IL-1β production inhibition grade (IC50). Summed up:
as §2

The term inhibition denotes the drop in the measured response relative to a control, in per cent. A word on the IC50: it is the concentration that gives 50% inhibition. `CC[C@H]1[C@@H](O)[C@@H]2[C@H](CC[C@]3(C)[C@@H]([C@H](C)CCC(=O)N4CCC[C@H](S(=O)(=O)O)C4)CC[C@@H]23)[C@@]2(C)CC[C@@H](O)C[C@@H]12` [NC40009]: the inhibition at 1 µM in experiment [1] and in experiment [2] was less than 20% in each case. Further, the values for the IC50 in experiment [3] and in experiment [4] were 1 to 2 µM and 0.1 to 0.2 µM, respectively.

Regarding `CC[C@H]1[C@@H](O)[C@@H]2[C@H](CC[C@]3(C)[C@@H]([C@H](C)CCC(=O)N4CCC[C@@H](S(=O)(=O)O)C4)CC[C@@H]23)[C@@]2(C)CC[C@@H](O)C[C@@H]12` [NC40010], the inhibition at 1 µM is 50 to 100% in experiment [1] and less than 20% in experiment [2]. The results for the IC50 in experiment [3] and in experiment [4] were 0.5 to 1 µM and no less than 0.2 µM, respectively.

For the molecule `CC[C@H]1[C@@H](O)[C@@H]2[C@H](CC[C@]3(C)[C@@H]([C@H](C)CCC(=O)N4CCC(S(=O)(=O)O)CC4)CC[C@@H]23)[C@@]2(C)CC[C@@H](O)C[C@@H]12` [NC40011], the inhibition at 1 µM in experiment [1] is less than 20%; in experiment [2], 20 to 50%. The IC50 is 0.5 to 1 µM in experiment [3] and no less than 0.2 µM in experiment [4].

As for `CC[C@H]1[C@@H](O)[C@@H]2[C@H](CC[C@]3(C)[C@@H]([C@H](C)CCC(=O)N4CC(S(=O)(=O)O)C4)CC[C@@H]23)[C@@]2(C)CC[C@@H](O)C[C@@H]12` [NC40012], the inhibition at 1 µM is less than 20% in experiment [1] and 50 to 100% in experiment [2]. In addition, the IC50 was 0.5 to 1 µM in experiment [3] and no less than 0.2 µM in experiment [4].

As to `CC[C@H]1[C@@H](O)[C@@H]2[C@H](CC[C@]3(C)[C@@H]([C@H](C)CCC(=O)NC(C)(C)CS(=O)(=O)O)CC[C@@H]23)[C@@]2(C)CC[C@@H](O)C[C@@H]12` [NC40013], the inhibition at 1 µM was less than 20% in experiment [1] and greater than 100% in experiment [2]. The IC50 was 1 to 2 µM in experiment [3] and less than 0.05 µM in experiment [4].

With `CC[C@H]1[C@@H](O)[C@@H]2[C@H](CC[C@]3(C)[C@@H]([C@H](C)CCC(=O)N[C@@H](Cc4ccccc4)CS(=O)(=O)O)CC[C@@H]23)[C@@]2(C)CC[C@@H](O)C[C@@H]12` [NC40014], the inhibition at 1 µM in experiment [1] was less than 20%; in experiment [2] it was greater than 100%. Moreover, the figures for the IC50 in experiment [3] and in experiment [4] were 0.5 to 1 µM and less than 0.05 µM, respectively.

With `CC[C@H]1[C@@H](O)[C@@H]2[C@H](CC[C@]3(C)[C@@H]([C@H](C)CCC(=O)N[C@H](Cc4ccccc4)CS(=O)(=O)O)CC[C@@H]23)[C@@]2(C)CC[C@@H](O)C[C@@H]12` [NC40015], the inhibition at 1 µM in experiment [1] is less than 20%; in experiment [2], greater than 100%. Further, the IC50 was in the range of 0.5 to 1 µM in experiment [3] and 0.05 to 0.1 µM in experiment [4].

Regarding `CC[C@H]1[C@@H](O)[C@@H]2[C@H](CC[C@]3(C)[C@@H]([C@H](C)CCC(=O)N[C@@H](CS(=O)(=O)O)C(C)C)CC[C@@H]23)[C@@]2(C)CC[C@@H](O)C[C@@H]12` [NC40017], the inhibition at 1 µM was less than 20% in experiment [1] and 20 to 50% in experiment [2]. In addition, the IC50 in experiment [3] is 0.5 to 1 µM; in experiment [4] it was no less than 0.2 µM.

In the case of `CC[C@H]1[C@@H](O)[C@@H]2[C@H](CC[C@]3(C)[C@@H]([C@H](C)CCC(=O)N[C@H](CS(=O)(=O)O)c4ccccc4)CC[C@@H]23)[C@@]2(C)CC[C@@H](O)C[C@@H]12` [NC40018], the values for the inhibition at 1 µM in experiment [1] and in experiment [2] were less than 20% and greater than 100%, respectively. Moreover, the IC50 in experiment [3] was less than 0.5 µM; in experiment [4], less than 0.05 µM.

With `CC[C@H]1[C@@H](O)[C@@H]2[C@H](CC[C@]3(C)[C@@H]([C@H](C)CCC(=O)N[C@@H](CS(=O)(=O)O)c4ccccc4)CC[C@@H]23)[C@@]2(C)CC[C@@H](O)C[C@@H]12` [NC40019], the inhibition at 1 µM was less than 20% in experiment [1] and greater than 100% in experiment [2]. Further, the figures for the IC50 in experiment [3] and in experiment [4] were 1 to 2 µM and 0.1 to 0.2 µM, respectively.

Take `CC[C@H]1[C@@H](O)[C@@H]2[C@H](CC[C@]3(C)[C@@H]([C@H](C)CCC(=O)N4CCC[C@@H]4CS(=O)(=O)O)CC[C@@H]23)[C@@]2(C)CC[C@@H](O)C[C@@H]12` [NC40020]: the results for the inhibition at 1 µM in experiment [1] and in experiment [2] were less than 20% and greater than 100%, respectively. Moreover, the IC50 is 1 to 2 µM in experiment [3] and 0.1 to 0.2 µM in experiment [4].

As for `CC[C@H]1[C@@H](O)[C@@H]2[C@H](CC[C@]3(C)[C@@H]([C@H](C)CCC(=O)N4CCC[C@H]4CS(=O)(=O)O)CC[C@@H]23)[C@@]2(C)CC[C@@H](O)C[C@@H]12` [NC40021], the inhibition at 1 µM was less than 20% in experiment [1] and 50 to 100% in experiment [2]. The IC50 in experiment [3] was 0.5 to 1 µM; in experiment [4], no less than 0.2 µM.

Turning to `CC[C@H]1[C@@H](O)[C@@H]2[C@H](CC[C@]3(C)[C@@H]([C@H](C)CCC(=O)NC[C@H](C)S(=O)(=O)O)CC[C@@H]23)[C@@]2(C)CC[C@@H](O)C[C@@H]12` [NC40022], the inhibition at 1 µM in experiment [1] and in experiment [2] was 20 to 50% throughout. For the same molecule, the IC50 in experiment [3] is 0.5 to 1 µM; in experiment [4], no less than 0.2 µM.

Consider `CC[C@H]1[C@@H](O)[C@@H]2[C@H](CC[C@]3(C)[C@@H]([C@H](C)CCC(=O)NC[C@@H](C)S(=O)(=O)O)CC[C@@H]23)[C@@]2(C)CC[C@@H](O)C[C@@H]12` [NC40023], for which the inhibition at 1 µM in experiment [1] and in experiment [2] was less than 20% in each case. In addition, the IC50 in experiment [3] is 0.5 to 1 µM; in experiment [4], no less than 0.2 µM.

Take `CC[C@H]1[C@@H](O)[C@@H]2[C@H](CC[C@]3(C)[C@@H]([C@H](C)CCC(=O)N[C@@H](CO)CS(=O)(=O)O)CC[C@@H]23)[C@@]2(C)CC[C@@H](O)C[C@@H]12` [NC40024]: the inhibition at 1 µM in experiment [1] and in experiment [2] was less than 20% each time. Besides, the IC50 was 0.5 to 1 µM in experiment [3] and no less than 0.2 µM in experiment [4].

Take `CC[C@H]1[C@@H](O)[C@@H]2[C@H](CC[C@]3(C)[C@@H]([C@H](C)CCC(=O)N[C@H](CO)CS(=O)(=O)O)CC[C@@H]23)[C@@]2(C)CC[C@@H](O)C[C@@H]12` [NC40025]: the inhibition at 1 µM in experiment [1] and in experiment [2] was 20 to 50% in each case. Also, the IC50 in experiment [3] was in the range of 0.5 to 1 µM; in experiment [4], 0.05 to 0.1 µM.

For the molecule `CC[C@H]1[C@@H](O)[C@@H]2[C@H](CC[C@]3(C)[C@@H]([C@H](C)CCC(=O)N[C@H]4CCCC[C@H]4S(=O)(=O)O)CC[C@@H]23)[C@@]2(C)CC[C@@H](O)C[C@@H]12` [NC40027], the inhibition at 1 µM is less than 20% in experiment [1] and 50 to 100% in experiment [2]. The results for the IC50 in experiment [3] and in experiment [4] were no less than 2 µM and no less than 0.2 µM, respectively.

In the case of `CC[C@H]1[C@@H](O)[C@@H]2[C@H](CC[C@]3(C)[C@@H]([C@H](C)CCC(=O)N[C@@H](C)CS(=O)(=O)O)CC[C@@H]23)[C@@]2(C)CC[C@@H](O)C[C@@H]12` [NC40028], the inhibition at 1 µM is less than 20% in experiment [1] and 50 to 100% in experiment [2]. The figures for the IC50 in experiment [3] and in experiment [4] were 1 to 2 µM and 0.1 to 0.2 µM, respectively.

As to `CC[C@H]1[C@@H](O)[C@@H]2[C@H](CC[C@]3(C)[C@@H]([C@H](C)CCC(=O)N[C@H](C)CS(=O)(=O)O)CC[C@@H]23)[C@@]2(C)CC[C@@H](O)C[C@@H]12` [NC40029], the inhibition at 1 µM in experiment [1] and in experiment [2] was less than 20% throughout. For the same molecule, the results for the IC50 in experiment [3] and in experiment [4] were 1 to 2 µM and no less than 0.2 µM, respectively.
